In the supplement of paper PMC10307832:

Assays:
Assay in all cases: relative viability (nuclei count vs DMSO), 5 days (fraction); higher = more cells survive
[1] = system: NCI-H2023
Procedure, shortened: (§1)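 After 5 days of treatment, lung cancer cells in 1536-well plates were fixed and stained in a single step (final 0.05% Triton X-100, 1% formaldehyde, 1 ug/ml Hoechst) and their nuclei counted on 4× images. Treatment had been applied by pin tool the day after seeding as one drug alone or as a fixed anchor-drug dose with five library-drug doses (not always all listed) in √10 steps. Relative viability is the nuclei count of treated wells divided by that of vehicle wells, and values are medians of duplicate plates.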

[2] = system: HCC-44
Procedure, shortened: as §1

[3] = system: HCC-366
Procedure, shortened: as §1

[4] = system: NCI-H441
Procedure, shortened: as §1

[5] = system: NCI-H1975
Procedure, shortened: as §1

[6] = system: NCI-H1651
Procedure, shortened: as §1

[7] = system: NCI-H2085
Procedure, shortened: as §1

[8] = system: LU99A
Procedure, shortened: as §1

[9] = system: NCI-H1734
Procedure, shortened: as §1

[10] = system: CAL-12T
Procedure, shortened: as §1

[11] = system: NCI-H2342
Procedure, shortened: as §1

[12] = system: NCI-H358
Procedure, shortened: as §1

[13] = system: NCI-H1395
Procedure, shortened: as §1

[14] = system: NCI-H460
Procedure, shortened: as §1

[15] = system: NCI-H1355
Procedure, shortened: as §1

[16] = system: BEN
Procedure, shortened: as §1

[17] = system: NCI-H1650
Procedure, shortened: as §1

[18] = system: NCI-H1755
Procedure, shortened: as §1

[19] = system: EKVX
Procedure, shortened: as §1

[20] = system: NCI-H1437
Procedure, shortened: as §1

[21] = system: NCI-H838
Procedure, shortened: as §1

[22] = system: LOU-NH91
Procedure, shortened: as §1

Q: Which relative viability ([1]; first compound 0.04 µM) does the source give for `O=C(O)c1ccc(-c2c[nH]c3ncc(-c4ccccc4)cc23)cc1C1CCCC1` + Cc1cc(Nc2cc(N3CCN(C)CC3)nc(Sc3ccc(NC(=O)C4CC4)cc3)n2)n[nH]1 [Tozasertib] (partner 0.1 µM) here?
A: 0.374

Q: What about the relative viability ([1]; first compound 0.1265 µM) of the same compound?
A: 0.39

Q: What about the relative viability ([1]; first compound 0.4 µM) of the same compound?
A: 0.318

Q: And the relative viability ([1]; first compound 1.265 µM)?
A: 0.242

Q: And the relative viability ([2]; first compound 0.04 µM)?
A: 1.16

Q: And the relative viability ([2]; first compound 0.1265 µM)?
A: 1.15

Q: What about the relative viability ([2]; first compound 0.4 µM) of the same compound?
A: 0.853

Q: And the relative viability ([2]; first compound 1.265 µM)?
A: 0.616

Q: And the relative viability ([3]; first compound 0.04 µM)?
A: 0.128

Q: And the relative viability ([3]; first compound 0.1265 µM)?
A: 0.163

Q: What about the relative viability ([3]; first compound 0.4 µM) of the same compound?
A: 0.0869

Q: And the relative viability ([3]; first compound 1.265 µM)?
A: 0.0888

Q: What about the relative viability ([4]; first compound 0.04 µM) of the same compound?
A: 0.71

Q: What about the relative viability ([4]; first compound 0.1265 µM) of the same compound?
A: 0.638

Q: What about the relative viability ([4]; first compound 0.4 µM) of the same compound?
A: 0.548

Q: What about the relative viability ([4]; first compound 1.265 µM) of the same compound?
A: 0.325

Q: What about the relative viability ([5]; first compound 0.04 µM) of the same compound?
A: 0.681

Q: And the relative viability ([5]; first compound 0.1265 µM)?
A: 0.875

Q: What about the relative viability ([5]; first compound 0.4 µM) of the same compound?
A: 0.794

Q: And the relative viability ([5]; first compound 1.265 µM)?
A: 0.729

Q: What about the relative viability ([6]; first compound 0.04 µM) of the same compound?
A: 0.689

Q: What about the relative viability ([6]; first compound 0.1265 µM) of the same compound?
A: 0.708

Q: What about the relative viability ([6]; first compound 0.4 µM) of the same compound?
A: 0.559

Q: And the relative viability ([6]; first compound 1.265 µM)?
A: 0.481

Q: What about the relative viability ([7]; first compound 0.04 µM) of the same compound?
A: 0.772

Q: And the relative viability ([7]; first compound 0.1265 µM)?
A: 0.829

Q: What about the relative viability ([7]; first compound 0.4 µM) of the same compound?
A: 0.598

Q: What about the relative viability ([7]; first compound 1.265 µM) of the same compound?
A: 0.52

Q: And the relative viability ([8]; first compound 0.04 µM)?
A: 0.268

Q: And the relative viability ([8]; first compound 0.1265 µM)?
A: 0.253

Q: And the relative viability ([8]; first compound 0.4 µM)?
A: 0.281

Q: What about the relative viability ([8]; first compound 1.265 µM) of the same compound?
A: 0.257

Q: And the relative viability ([9]; first compound 0.04 µM)?
A: 0.284

Q: What about the relative viability ([9]; first compound 0.1265 µM) of the same compound?
A: 0.236

Q: And the relative viability ([9]; first compound 0.4 µM)?
A: 0.247

Q: What about the relative viability ([9]; first compound 1.265 µM) of the same compound?
A: 0.258

Q: What about the relative viability ([10]; first compound 0.04 µM) of the same compound?
A: 0.314

Q: What about the relative viability ([10]; first compound 0.1265 µM) of the same compound?
A: 0.374

Q: What about the relative viability ([10]; first compound 0.4 µM) of the same compound?
A: 0.315

Q: What about the relative viability ([10]; first compound 1.265 µM) of the same compound?
A: 0.337

Q: What about the relative viability ([11]; first compound 0.04 µM) of the same compound?
A: 0.588

Q: What about the relative viability ([11]; first compound 0.1265 µM) of the same compound?
A: 0.422

Q: What about the relative viability ([11]; first compound 0.4 µM) of the same compound?
A: 0.445

Q: What about the relative viability ([11]; first compound 1.265 µM) of the same compound?
A: 0.521

Q: And the relative viability ([12]; first compound 0.04 µM)?
A: 0.0826

Q: What about the relative viability ([12]; first compound 0.1265 µM) of the same compound?
A: 0.107

Q: What about the relative viability ([12]; first compound 0.4 µM) of the same compound?
A: 0.0884

Q: And the relative viability ([12]; first compound 1.265 µM)?
A: 0.0978

Q: What about the relative viability ([13]; first compound 0.04 µM) of the same compound?
A: 0.818

Q: And the relative viability ([13]; first compound 0.1265 µM)?
A: 0.793

Q: What about the relative viability ([13]; first compound 0.4 µM) of the same compound?
A: 0.676

Q: And the relative viability ([13]; first compound 1.265 µM)?
A: 0.604

Q: And the relative viability ([14]; first compound 0.04 µM)?
A: 0.413

Q: What about the relative viability ([14]; first compound 0.1265 µM) of the same compound?
A: 0.384

Q: And the relative viability ([14]; first compound 0.4 µM)?
A: 0.491

Q: What about the relative viability ([14]; first compound 1.265 µM) of the same compound?
A: 0.306

Q: What about the relative viability ([15]; first compound 0.04 µM) of the same compound?
A: 0.56

Q: What about the relative viability ([15]; first compound 0.1265 µM) of the same compound?
A: 0.632

Q: And the relative viability ([15]; first compound 0.4 µM)?
A: 0.522

Q: What about the relative viability ([15]; first compound 1.265 µM) of the same compound?
A: 0.281

Q: And the relative viability ([16]; first compound 0.04 µM)?
A: 0.603

Q: And the relative viability ([16]; first compound 0.1265 µM)?
A: 0.501

Q: What about the relative viability ([16]; first compound 0.4 µM) of the same compound?
A: 0.49

Q: What about the relative viability ([16]; first compound 1.265 µM) of the same compound?
A: 0.437

Q: What about the relative viability ([17]; first compound 0.04 µM) of the same compound?
A: 0.458

Q: And the relative viability ([17]; first compound 0.1265 µM)?
A: 0.388

Q: What about the relative viability ([17]; first compound 0.4 µM) of the same compound?
A: 0.372

Q: What about the relative viability ([17]; first compound 1.265 µM) of the same compound?
A: 0.295

Q: And the relative viability ([18]; first compound 0.04 µM)?
A: 0.609

Q: What about the relative viability ([18]; first compound 0.1265 µM) of the same compound?
A: 0.628

Q: And the relative viability ([18]; first compound 0.4 µM)?
A: 0.514

Q: What about the relative viability ([18]; first compound 1.265 µM) of the same compound?
A: 0.509

Q: And the relative viability ([19]; first compound 0.04 µM)?
A: 0.404

Q: What about the relative viability ([19]; first compound 0.1265 µM) of the same compound?
A: 0.443

Q: And the relative viability ([19]; first compound 0.4 µM)?
A: 0.416

Q: What about the relative viability ([19]; first compound 1.265 µM) of the same compound?
A: 0.364

Q: What about the relative viability ([20]; first compound 0.04 µM) of the same compound?
A: 0.402

Q: What about the relative viability ([20]; first compound 0.1265 µM) of the same compound?
A: 0.466

Q: And the relative viability ([20]; first compound 0.4 µM)?
A: 0.398

Q: What about the relative viability ([20]; first compound 1.265 µM) of the same compound?
A: 0.405

Q: And the relative viability ([21]; first compound 0.04 µM)?
A: 0.291

Q: And the relative viability ([21]; first compound 0.1265 µM)?
A: 0.274

Q: And the relative viability ([21]; first compound 0.4 µM)?
A: 0.232

Q: And the relative viability ([21]; first compound 1.265 µM)?
A: 0.229

Q: What about the relative viability ([22]; first compound 0.04 µM) of the same compound?
A: 0.584

Q: And the relative viability ([22]; first compound 0.1265 µM)?
A: 0.688

Q: And the relative viability ([22]; first compound 0.4 µM)?
A: 0.616

Q: And the relative viability ([22]; first compound 1.265 µM)?
A: 0.526
